# Data from US20030139368A1, “Antithrombotic and/or anti-inflammatory composition combining purine activity and NSAID activity” (priority 2000, published 2003).
# Assays:
# male mice = assay: Anti-inflammatory effect: carrageenan-induced inflammation in air pocket, leukocyte count in exudate; assay type: in vivo; conditions: for Number of leukocytes: 100 mg/kg/day by gastric gavage on days 3, 4, 5, exudate 4 hours after carrageenan, controls 9.57 ± 0.48; for % inhibition: 100 mg/kg/day by gastric gavage, versus controls
# Experimental: The test was performed on male mice weighing 20 g. This protocol lasted 5 days. On day 1, we injected 3 cm^3 of air in the dorsal part via the subcutaneous route. The resultant air pockets were reinflated on days 2, 3 and 4 with 1 cm^3 of air. […] We induced inflammation by injection of 1 ml of a 2% (weight/volume) suspension of carrageenan in PBS buffer into the air pocket. After 4 hours, the pockets were washed with 2 ml of PBS and the exudates were collected. Aliquot parts were diluted to 1:1 with a 0.01% solution of methylene blue in a PBS buffer. We then performed counting of the cells (principally neutrophils) whose accumulation was induced by the inflammation.
# gastric mucosa = assay: Gastric toxicity, macroscopic and histologic observation of the stomach; assay type: in vivo; conditions: 100 mg/kg by gavage, fasted rats, 3 hours
# Experimental: This test was performed on Sprague Dawley rats (IFFA CREDO, l'Arbresle, France). The rats were in a fasting state the evening before the experiment (but drinking water was available ad libitum). […] Three hours later, the rats were sacrificed by a lethal dose of pentobarbital. The stomach was removed, opened along the greater curvature and rinsed with water. The gastric mucosa was photographed and digitized using a Macintosh G3 computer equipped with a program (NIH, USA) and a video card (Scion, USA). The stomach was fixed with buffered formalin and then processed with the conventional histological techniques for paraffin inclusion. The sections (5 μm) were then stained with hematoxylin-eosin-safranin.
# Two observations were performed: macroscopic (after the stomach was collected, under the microscope) and histologic.
# human platelets = assay: Response of human platelets stimulated by collagen; assay type: cell-based; conditions: collagen 0.19 mg/ml; substance 0.6 mM
# Experimental: Platelet rich plasma was prepared by centrifugation using known methods.
# Measurements were performed using an aggregometer marketed under the name “Chrono-log”. The measurements were processed and digitized using an “MP30 Biopac” data acquisition system.
# We studied the response of human platelets stimulated by collagen (0.19 mg/ml, Biodata). Two parameters were measured: the latency time (elapsed time between bringing the platelets into contact with collagen and the beginning of aggregation) and the maximum amplitude of aggregation.
# rat platelets = assay: Aggregation of rat platelets (platelet rich plasma) stimulated by ADP, aggregometer; assay type: cell-based; conditions: for aggregation: without AMP 80%
# Experimental: Blood was collected on a citrate buffer from rats that had not received any treatment or from humans who had not received any treatment during the two weeks preceding collection of the blood sample. Platelet rich plasma was prepared by centrifugation using known methods. Measurements were performed using an aggregometer marketed under the name “Chrono-log”. The measurements were processed and digitized using an “MP30 Biopac” data acquisition system.
structure (smiles),measurement,setting,value
"O=C(Nc1ncnc2c1ncn2[C@@H]1O[C@H](CO)[C@@H](O)[C@H]1O)c1ccccc1O [Example 3, adenosine N-salicylyl]",Number of leukocytes,male mice,3.80 ± 0.80 millions/ml
same,% inhibition,male mice,60%
same,damage to the gastric wall (macroscopic and histologic),gastric mucosa,did not cause damage to the gastric wall
"Nc1ncnc2c1ncn2[C@@H]1O[C@H](COP(=O)(O)O)[C@@H](O)[C@H]1O [AMP, (5′-O-phosphate)adenosine]",latency time multiplied by (factor),human platelets,circa 1.5
same,maximum response (maximum amplitude of aggregation) to collagen,human platelets,not modified
same,aggregation,rat platelets; ADP 20 μM in the presence of 2.5 mM AMP,40%
same,aggregation,rat platelets; ADP 20 μM in the presence of 5.0 mM AMP,20%
same,effect on aggregation already induced,"rat platelets; ADP 20 μM, AMP 10 mM added 30 seconds later",immediate disaggregation
Nc1ncnc2c1ncn2[C@@H]1O[C@H](CO)[C@@H](O)[C@H]1O [adenosine],aggregation compared with AMP (5 mM),"rat platelets; ADP 20 μM, adenosine 4 mM in place of AMP 5 mM",Comparable results
O=C([O-])c1ccccc1O.[Na+] [sodium salicylate],inhibition of platelet aggregation,"rat platelets; sodium salicylate 7.5 mM added to plasma, then ADP 20 μM",No significant inhibition
"CC(=O)Oc1ccccc1C(=O)O [aspirin, acetylsalicylic acid]",Number of leukocytes,male mice,6.40 ± 0.77 millions/ml
same,% inhibition,male mice,33%
